Measured values published in patent publication US5455271A, “Tight-binding inhibitors of leukotriene A4 hydrolase” (The Scripps Research Institute, priority 1993, dated 1995).
Where two headings read alike, the source gives them in different places. Values belong to the molecule of their own block, whether it stands above or below them.

Key:
[1] = tested on: LTB4 Formation in intact PMNL; assay: LTB4 formation in calcium ionophore A-23187-stimulated intact PMNL; assay type: cell-based; conditions: for IC50: Homo sapiens, PMNL, calcium ionophore A-23187-stimulated, dose dependent
aminopeptidase M = molecular target: T1, aminopeptidase M (Sus scrofa, UniProt P15145); assay: Inhibition of aminopeptidase M; assay type: biochemical
T1 sequence (P15145 1-963): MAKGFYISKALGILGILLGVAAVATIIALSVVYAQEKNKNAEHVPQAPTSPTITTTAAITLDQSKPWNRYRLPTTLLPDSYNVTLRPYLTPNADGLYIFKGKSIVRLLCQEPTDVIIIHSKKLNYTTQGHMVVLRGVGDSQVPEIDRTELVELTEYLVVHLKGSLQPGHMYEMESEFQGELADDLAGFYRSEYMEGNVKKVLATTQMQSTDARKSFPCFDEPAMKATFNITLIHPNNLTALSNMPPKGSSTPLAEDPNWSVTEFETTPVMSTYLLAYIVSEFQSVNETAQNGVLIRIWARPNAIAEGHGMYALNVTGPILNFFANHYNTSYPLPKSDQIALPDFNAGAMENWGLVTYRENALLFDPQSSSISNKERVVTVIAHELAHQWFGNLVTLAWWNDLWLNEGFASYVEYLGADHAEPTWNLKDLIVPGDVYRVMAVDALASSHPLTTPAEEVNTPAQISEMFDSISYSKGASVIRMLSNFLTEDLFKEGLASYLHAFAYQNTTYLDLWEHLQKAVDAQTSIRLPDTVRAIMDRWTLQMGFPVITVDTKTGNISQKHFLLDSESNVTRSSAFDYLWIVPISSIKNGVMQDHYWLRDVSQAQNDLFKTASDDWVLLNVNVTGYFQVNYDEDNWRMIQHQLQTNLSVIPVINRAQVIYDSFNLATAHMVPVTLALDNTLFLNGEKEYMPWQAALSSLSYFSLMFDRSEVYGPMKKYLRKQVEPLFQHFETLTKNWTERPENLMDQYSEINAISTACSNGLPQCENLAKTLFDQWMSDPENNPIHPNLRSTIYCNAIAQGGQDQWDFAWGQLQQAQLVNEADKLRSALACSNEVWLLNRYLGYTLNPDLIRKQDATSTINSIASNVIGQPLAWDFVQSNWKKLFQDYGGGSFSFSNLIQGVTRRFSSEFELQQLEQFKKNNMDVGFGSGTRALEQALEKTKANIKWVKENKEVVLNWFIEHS

15-lipoxygenase = assay: Inhibition of 15-lipoxygenase in A-23187-stimulated PMNL with exogenous arachidonic acid; assay type: cell-based
Description: (§1) Compounds 24 and 27 were also studied for their abilities to inhibit 5- and 15-lipoxygenase using calcium ionophore A-23187-stimulated polymorphonuclear leukocytes (PMNL) in the presence of exogenous arachidonic acid. […] LTC4 Synthase activity in human platelets was also not inhibited.

Leukotriene B4 (LTB4) = assay: Inhibition of leukotriene B4 (LTB4) in calcium ionophore A-23187-stimulated human blood; assay type: cell-based
Protocol: (§4) Blood was drawn from a human volunteer, and a compound solution at one of three concentrations (Table 3) or a single concentration (Table 4), or solution alone (vehicle) was added to a one ml aliquot of the blood. After incubation for 15 minutes, 14 μg of calcium ionophore A-23187 (as the free acid) was added, and the incubation continued for another 15 minutes. The reactions were stopped by immersion of the containers into slush ice, and the samples were centrifuged at 11,000 ×g to pellet red cells and leukocytes. An aliquot of the plasma was then assayed for the presence of thromboxane B2 or leukotriene B4 by standard radioimmunoassay techniques.

[2] = molecular target: cytosolic leucine aminopeptidase; assay: Inhibition of cytosolic leucine aminopeptidase; assay type: biochemical
LTC4 Synthase = assay: Inhibition of LTC4 synthase activity in human platelets; assay type: cell-based
Description: as §1

Thromboxane B2 (TXB2) = assay: Inhibition of thromboxane B2 (TXB2) in calcium ionophore A-23187-stimulated human blood; assay type: cell-based
Protocol: as §4

LTA4 hydrolase = molecular target: T2, LTA4 hydrolase (Homo sapiens, UniProt P09960); assay: Inhibition of LTA4 hydrolase, amidase (aminopeptidase) activity, L-alanyl p-nitroanilide as substrate; assay type: biochemical; parameters: LTA4 hydrolase purified from human leukocytes; from tissue; host or cells: human leukocytes (purified enzyme)
T2 sequence (P09960 1-611): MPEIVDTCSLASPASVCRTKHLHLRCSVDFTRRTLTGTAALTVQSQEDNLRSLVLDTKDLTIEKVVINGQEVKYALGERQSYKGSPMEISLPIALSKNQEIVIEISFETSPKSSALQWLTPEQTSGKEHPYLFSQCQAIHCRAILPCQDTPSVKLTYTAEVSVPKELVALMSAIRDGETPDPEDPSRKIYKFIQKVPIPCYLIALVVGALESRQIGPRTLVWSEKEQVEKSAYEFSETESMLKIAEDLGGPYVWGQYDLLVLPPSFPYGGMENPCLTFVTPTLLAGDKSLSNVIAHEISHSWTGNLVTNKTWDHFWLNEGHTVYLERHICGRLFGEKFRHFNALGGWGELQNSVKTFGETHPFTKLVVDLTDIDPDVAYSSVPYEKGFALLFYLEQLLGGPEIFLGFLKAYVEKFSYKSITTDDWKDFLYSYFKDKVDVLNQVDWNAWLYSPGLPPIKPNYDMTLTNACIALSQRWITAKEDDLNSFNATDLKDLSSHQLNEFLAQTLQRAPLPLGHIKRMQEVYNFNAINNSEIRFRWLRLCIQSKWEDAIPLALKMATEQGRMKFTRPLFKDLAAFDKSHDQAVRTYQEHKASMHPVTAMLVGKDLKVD
Protocol: ^a All assays were performed in TrisHCl buffer (0.05 M, pH 8.0) with
Lalanyl pnitroanilide (1.5 mM) as substrate unless otherwise indicated.
for each assay (final volume = 1.0 mL). pNitroaniline formation was
monitored spectrophotometrically at 405 nm. Thiol compounds were assayed
in the presence of 5 mM DTT. The values shown are within ± 5 percent
accuracy. Dixon plot was used to determine the Ki values.

[3] = molecular target: T3, LTA4 hydrolase (epoxide hydrolase activity) (Homo sapiens, UniProt P09960); assay: Inhibition of epoxide hydrolase activity of LTA4 hydrolase, LTA4 as substrate; assay type: biochemical; conditions: Table 5; read-out: IC50 Epoxide Hydrolase
T3 construct: obtained from human leukocytes and was purified to apparent homogeneity; from tissue; host or cells: human leukocytes (purified to apparent homogeneity)
T3 sequence (P09960 1-611): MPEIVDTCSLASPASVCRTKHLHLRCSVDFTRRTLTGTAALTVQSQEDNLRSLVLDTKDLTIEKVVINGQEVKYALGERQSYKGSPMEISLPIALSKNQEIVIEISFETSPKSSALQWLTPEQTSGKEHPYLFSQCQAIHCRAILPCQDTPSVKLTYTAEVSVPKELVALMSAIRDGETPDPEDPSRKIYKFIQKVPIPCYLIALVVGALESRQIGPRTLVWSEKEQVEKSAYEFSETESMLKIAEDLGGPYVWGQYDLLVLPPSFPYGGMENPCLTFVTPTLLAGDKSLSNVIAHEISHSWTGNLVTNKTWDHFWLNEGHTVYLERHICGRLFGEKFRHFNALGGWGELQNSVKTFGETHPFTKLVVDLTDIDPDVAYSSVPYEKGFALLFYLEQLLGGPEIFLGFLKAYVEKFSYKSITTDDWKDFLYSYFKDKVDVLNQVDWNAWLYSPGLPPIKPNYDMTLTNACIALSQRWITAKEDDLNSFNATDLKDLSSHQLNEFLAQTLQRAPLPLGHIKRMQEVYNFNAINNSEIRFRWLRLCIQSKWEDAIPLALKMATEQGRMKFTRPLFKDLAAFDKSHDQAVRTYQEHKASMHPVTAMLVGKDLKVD
Protocol: Aliquots of enzyme (2.5 mg) were preincubated for 30-40 minutes at room temperature in 100 mL of 50 mM HEPES, pH 8, containing various amounts of the respective inhibitor. […] After addition of 200 ng PGB1 (internal standard), samples were acidified to pH value of 3 with 0.1M HCl, extracted on Chromabond C18 columns (Mackerey & Nagel), and finally analyzed on a computerized Waters HPLC system. The column (Radial-Pak C18 cartridge, 100×5 mm, Waters) was eluted with a mixture of methanol/water/acetic acid (70:30:0.01, v/v) at a flow rate of 1.2 mL/minutes. The UV absorbance of the eluate was monitored continuously at 270 nm. Amounts of LTB4 were computer calculated from peak area ratios between LTB4 and the internal standard PGB1. Peak area ratios were converted into molar ratios from comparisons with standard curve constructed from injections of known amounts of the respective compound.

5-lipoxygenase = conditions: read-out: IC50, 5-lipoxygenase production of 5-HETE; cited from earlier work
cyclooxygenase = conditions: read-out: IC50, cyclooxygenase production of PGD2; cited from earlier work
[4] = substrate: N=C(N)NCCC[C@H](N)C(=O)Nc1ccc([N+](=O)[O-])cc1; assay: purified protein, by the assay type; conditions: other: Table 1, 50 mM TrisCl, pH 7.6, 0.1 M NaCl
[5] = substrate: CCCCC/C=C\C\C=C/C=C/C=C/[C@@H]1O[C@H]1CCCC(=O)O; assay: Kinetic parameters of LTA4 hydrolase-catalyzed hydrolysis of LTA4 and amide substrates; assay type: biochemical; conditions: other: Table 1, 50 mM TrisCl, pH 7.6, 0.1 M NaCl
Protocol: (§2) Several amino acid amides were assayed as substrates for LTA4 hydrolase. Yuan et al., Bioorg. & Med. Chem. Lett., 1:551 (1991).
(§3) ^a Determined in 50 mM TrisCl, pH 7.6, in the presence of 0.1 M NaCl, […]

[6] = substrate: C[C@H](N)C(=O)Nc1ccc([N+](=O)[O-])cc1; assay: as above; assay type: biochemical; conditions: other: Table 1, 50 mM TrisCl, pH 7.6, 0.1 M NaCl
Protocol: as §2, §3

[7] = substrate: O=C(Nc1ccc([N+](=O)[O-])cc1)[C@@H]1CCCN1; assay: as above; assay type: biochemical; conditions: other: Table 1, 50 mM TrisCl, pH 7.6, 0.1 M NaCl
Protocol: as §2, §3

[8] = substrate: CC(C)C[C@H](N)C(=O)Nc1ccc([N+](=O)[O-])cc1; assay: as above; assay type: biochemical; conditions: other: Table 1, 50 mM TrisCl, pH 7.6, 0.1 M NaCl
Protocol: as §2, §3

[9] = substrate: NCCCC[C@H](N)C(=O)Nc1ccc([N+](=O)[O-])cc1; assay: as above; assay type: biochemical; conditions: other: Table 1, 50 mM TrisCl, pH 7.6, 0.1 M NaCl
Protocol: as §2, §3

[10] = Homo sapiens, read-out: % Inhibition LTB4, Table 3
[11] = Homo sapiens, read-out: % Inhibition LTB4, Table 4
[12] = read-out: % Inhibition TXB2, Table 4, 10 μM
[13] = Homo sapiens, Table 3, read-out: % Inhibition LTB4

Molecule: N[C@@H](Cc1ccc(OCc2ccccc2)cc1)[C@H](O)C(=O)OCc1ccccc1 [Compound 24]
IC50 [1]: 0.1 to 0.2 µM
activity in intact PMNL compared with isolated enzyme (in words) ([1]; intact PMNL versus isolated enzyme): unexpectedly much more active in this assay using intact PMNL than in assays with the isolated enzyme
IC50 (aminopeptidase M): > 100 µM
inhibition of 15-lipoxygenase activity (in words) (15-lipoxygenase): No inhibition
inhibition at 1 µM (Leukotriene B4 (LTB4); [10]): 7%
inhibition at 3 µM (Leukotriene B4 (LTB4); [10]): 44%
inhibition at 10 µM (Leukotriene B4 (LTB4); [10]): 39%
inhibition at 10 µM (Leukotriene B4 (LTB4); [11]): 18%
IC50 [2]: 80 µM
inhibition of LTC4 synthase activity (in words) (LTC4 Synthase): not inhibited
inhibition at 1 µM (Thromboxane B2 (TXB2); read-out: % Inhibition TXB2, Table 3, 1 μM): 0%
inhibition at 3 µM (Thromboxane B2 (TXB2); read-out: % Inhibition TXB2, Table 3, 3 μM): 17%
inhibition at 10 µM (Thromboxane B2 (TXB2); read-out: % Inhibition TXB2, Table 3, 10 μM): 4%
inhibition at 10 µM (Thromboxane B2 (TXB2); [12]): 0%

IC50 (aminopeptidase M): 80 µM
tightness of binding to the enzyme relative to Compound 23 (LTA4 hydrolase; Compound 25 versus Compound 23): 30 times
IC50 (LTA4 hydrolase; L-alanyl p-nitroanilide 1.5 mM, pH 8.0, thiols with 5 mM DTT): 0.6 µM
selectivity for LTA4 binding (in words) (LTA4 hydrolase; versus other aminopeptidases): selective for LTA4 binding
IC50 [3]: 100 µM
Molecule: COC(=O)C(=O)[C@@H](N)Cc1ccc(OCc2ccccc2)cc1 [Compound 25]
inhibition at 1 µM (Leukotriene B4 (LTB4); [13]): 29%
inhibition at 3 µM (Leukotriene B4 (LTB4); [13]): 59%
inhibition at 10 µM (Leukotriene B4 (LTB4); [13]): 39%
inhibition at 1 µM (Thromboxane B2 (TXB2); Table 3, 1 μM, read-out: % Inhibition TXB2): 25%
inhibition at 3 µM (Thromboxane B2 (TXB2); Table 3, 3 μM, read-out: % Inhibition TXB2): 20%
inhibition at 10 µM (Thromboxane B2 (TXB2); Table 3, 10 μM, read-out: % Inhibition TXB2): 41%

Molecule: Cl.N[C@H](CS)Cc1ccc(OCc2ccccc2)cc1 [Compound 27, (2S)-3-[4-(benzyloxy)phenyl]-2-amino-propanethiol HCl]
IC50 [1]: 0.1 to 0.2 µM
inhibition of 15-lipoxygenase activity (in words) (15-lipoxygenase): No inhibition
inhibition at 10 µM (Leukotriene B4 (LTB4); [11]): 100%
IC50 (Leukotriene B4 (LTB4); Homo sapiens, read-out: IC50 in this assay (human blood)): ~1.1 µM
IC50 [2]: > 50 µM
inhibition of LTC4 synthase activity (in words) (LTC4 Synthase): not inhibited
inhibition at 10 µM (Thromboxane B2 (TXB2); [12]): 100%

Molecule: COc1ccc(-n2nc(CCC(=O)N(C)O)cc2-c2ccc(Cl)cc2)cc1 [Tepoxalin]
IC50 (5-lipoxygenase): 1.29 µM
potency in the blood eicosanoid assay (in words) (Leukotriene B4 (LTB4); Table 3 assay system): more potent than any compound in this table
IC50 (cyclooxygenase): 0.2 µM

B1: LTA4 hydrolase (Homo sapiens) (protein)
chain: MPEIVDTCSLASPASVCRTKHLHLRCSVDFTRRTLTGTAALTVQSQEDNLRSLVLDTKDLTIEKVVINGQEVKYALGERQSYKGSPMEISLPIALSKNQEIVIEISFETSPKSSALQWLTPEQTSGKEHPYLFSQCQAIHCRAILPCQDTPSVKLTYTAEVSVPKELVALMSAIRDGETPDPEDPSRKIYKFIQKVPIPCYLIALVVGALESRQIGPRTLVWSEKEQVEKSAYEFSETESMLKIAEDLGGPYVWGQYDLLVLPPSFPYGGMENPCLTFVTPTLLAGDKSLSNVIAHEISHSWTGNLVTNKTWDHFWLNEGHTVYLERHICGRLFGEKFRHFNALGGWGELQNSVKTFGETHPFTKLVVDLTDIDPDVAYSSVPYEKGFALLFYLEQLLGGPEIFLGFLKAYVEKFSYKSITTDDWKDFLYSYFKDKVDVLNQVDWNAWLYSPGLPPIKPNYDMTLTNACIALSQRWITAKEDDLNSFNATDLKDLSSHQLNEFLAQTLQRAPLPLGHIKRMQEVYNFNAINNSEIRFRWLRLCIQSKWEDAIPLALKMATEQGRMKFTRPLFKDLAAFDKSHDQAVRTYQEHKASMHPVTAMLVGKDLKVD
Km [4]: 200 µM
Vmax [4]: 135 nmol/min/mg
Km [5]: 7.6 µM
Km [6]: 500 µM
Vmax [6]: 530 nmol/min/mg
Km [7]: 100 µM
Vmax [7]: 135 nmol/min/mg
Km [8]: 300 µM
Vmax [8]: 135 nmol/min/mg
Km [9]: 100 µM
Vmax [9]: 30 nmol/min/mg
